Legend:
[1] = Intravenous injection: BP and HR in pentobarbital-anesthetized rats; assay type: in vivo, Wistar rats
Method: Intravenous injection. The experiments were carried out as previously described (Wu B N. et al., Biochem. Pharmacol., 48:101–109, 1994). In brief, Wistar rats weighing 250–300 grams were anesthetized with pentobarbital sodium (50 mg kg^−1, i.p.). Following tracheal cannulation, systemic arterial BP and HR were recorded from the femoral artery by a pressure transducer (model P10EZ; Spectramed, Oxnard, Calif., U.S.A.) connected to a recorder (GOULD, Valley View, Ohio, Model P50). Body temperature was maintained at 37° C. by an electric heating pad. A femoral vein was cannulated for intravenous injection of drugs and LPS (10 mg kg^−1).

α2 receptors = assay: Receptor binding, [3H]yohimbine, rat cortex; design: species or system Wistar rat
Method: (§1) Drugs and chemicals. […] Eugenosedin-A synthesized in this laboratory was solvated in 50% absolute alcohol, 10% propylene glycol and further diluted with distilled water. All of the [^3H] ligand was purchased from New England Nuclear Corp. (Boston, Mass., U.S.A.).
(§2) Receptor binding studies. […] The homogenate was pressure filtered through muslin. Filtrate was centrifuged at 1000 g for 10 min. Supernatant was centrifuged at 10,000 g for 12 min at 4° C. The second supernatant was centrifuged at 30,000 g for 15 min at 4° C. The final pellet was re-suspended in assay buffer (75 mM Tris HCl, 25 mM MgCl2, pH 7.4). Protein content was determined by Bradford's method. Radioligand agents and membranes (200–300 μg) were incubated for 60 min at 25° C. with or without the addition of nonspecific binding agents, in a 75 mM Tris HCl buffer with 25 mM MgCl2, to make a final volume of 500 μl. In competitive-binding experiments, the competing agent was added directly to the incubation mixture. Incubation was terminated by addition of 1 ml of ice-cold assay buffer followed by immediate filtration through Whatman GF/C glass fiber filters supported on a 12-port filter manifold (Millipore). The filters were immediately washed 3 times with 5 ml of ice-cold assay buffer and dried in an oven at 60° C. for 2 hours before adding 5 ml of Triton-toluene-based scintillation fluid. Membrane-bound radioligand trapped in the filters was counted in a Beckman LS6500 scintillation system (Fullerton, Calif., U.S.A) with an efficiency of 45%. In each experiment, nonspecifically bound radioligand agents were determined by incubating membrane protein. Specific binding for each sample was obtained by deducting this value from the total binding of radioligand agents.

α1-adrenoceptors = assay: Noradrenaline-induced contraction of isolated rat thoracic aorta; assay type: cell-based; details: 10^−8, 10^−7, 10^−6 M
Excerpt: (§3) Isolation of rat thoracic aorta. Rat thoracic aorta was removed, cleaned of adhering fat and connective tissue and cut into 3–4 mm wide transverse rings.

β1-adrenoceptor = target: T1, β1-adrenoceptor (Rattus norvegicus, UniProt P18090); assay: Isoprenaline-induced positive inotropic effect in electrically stimulated rat left atria; assay type: cell-based; details: 10^−8, 10^−7, 10^−6 M, isolated rat left atria
T1 construct: isoprenaline-induced concentration-response curves in isolated rat left atria; from tissue; host or cells: isolated rat left atria
T1 sequence (P18090 whole entry): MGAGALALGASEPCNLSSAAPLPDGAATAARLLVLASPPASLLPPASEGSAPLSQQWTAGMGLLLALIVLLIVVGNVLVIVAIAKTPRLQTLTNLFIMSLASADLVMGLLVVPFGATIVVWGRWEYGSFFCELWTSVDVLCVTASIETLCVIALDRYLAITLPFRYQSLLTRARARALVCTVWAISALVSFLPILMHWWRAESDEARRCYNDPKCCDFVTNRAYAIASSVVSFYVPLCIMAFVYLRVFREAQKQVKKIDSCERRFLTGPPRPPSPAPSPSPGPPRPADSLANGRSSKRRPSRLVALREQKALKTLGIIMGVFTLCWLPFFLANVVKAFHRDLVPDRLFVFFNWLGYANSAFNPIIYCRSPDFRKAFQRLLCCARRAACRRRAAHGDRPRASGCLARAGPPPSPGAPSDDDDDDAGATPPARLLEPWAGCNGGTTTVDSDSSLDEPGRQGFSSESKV
Method: Isolation of rat left atria. Rats of either sex weighing 350–500 g were sacrificed after mild anesthesia with ether, and their hearts were quickly excised. Left atria were dissected from the hearts and mounted in a 10 ml organ bath with one end fixed and the other end connected to a force displacement transducer (Grass, Model FT03). The experiments were carried out at 37° C. in a Krebs solution of the following composition (mM): NaCl 113, KCl 4.8, CaCl2 2.2, KH2PO4 1.2, MgCl2 1.2, NaHCO3 25, Dextrose 11.0; bubbled with a 95% O2+5% CO2 mixture. Atria were pre-stretched to a baseline tension of 0.5 g and equilibrated for 60 min in an aerated Krebs solution before starting experimental protocols. Atria were driven at 2-s intervals via two platinum electrodes on each side. An incubation time of 30 min was allowed for the test compound. Data were calculated as a percentage of the maximum contraction (Wu et al., 2001).

5-HT2A receptor = 5-HT2A receptor (Rattus norvegicus, UniProt P14842); assay: 5-HT-induced contraction of isolated rat thoracic aorta; assay type: cell-based; design: from tissue; host or cells: rat thoracic aorta rings
Sequence of 5-HT2A receptor (P14842 whole entry): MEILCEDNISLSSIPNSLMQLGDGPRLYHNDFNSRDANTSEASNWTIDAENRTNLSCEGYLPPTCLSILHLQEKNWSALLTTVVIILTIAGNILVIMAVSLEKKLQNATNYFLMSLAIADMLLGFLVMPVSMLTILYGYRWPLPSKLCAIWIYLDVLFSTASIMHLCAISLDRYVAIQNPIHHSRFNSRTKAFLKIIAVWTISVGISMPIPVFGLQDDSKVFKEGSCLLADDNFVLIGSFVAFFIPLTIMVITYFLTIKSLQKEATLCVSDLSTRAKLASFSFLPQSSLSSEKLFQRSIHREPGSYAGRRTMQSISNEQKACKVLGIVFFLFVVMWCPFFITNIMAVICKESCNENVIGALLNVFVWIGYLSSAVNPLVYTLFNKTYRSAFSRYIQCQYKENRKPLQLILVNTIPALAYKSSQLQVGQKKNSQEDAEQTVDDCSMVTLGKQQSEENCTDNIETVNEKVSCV
Excerpt: as §3

IL-1β = assay: Plasma cytokine immunoreactivity after LPS: IL-1β; assay type: in vivo, Wistar rats; details: 3 hours after LPS 10 mg kg^−1 i.v.; pretreatment (eugenosedin-A 1 mg kg^−1 i.v.)
Method: (§4) Plasma cytokine immunoreactivity and blood glucose. Blood was collected from venous cannula, injected into ice-cold heparinized Eppendorf tubes and centrifuged at 1500 rpm for 10 min at 4° C. Plasma supernatant was stored at −70° C. until analyzed. Solid phase enzyme immunoassay that specifically detects murine IL-1β, IL-6, IFN-γ and TNF-α was used with a detection limit of >10 pg/ml (Endogen, U.S.A). Pretreatment with eugenosedin-A and other agents was performed 15 minutes before intravenous injection of LPS. Blood was collected from venous cannula. Blood glucose was measured with a glucose test strip (Glucotide, Bayer, U.S.A) at 1, 3 and 5 hours.

[2] = Intra-cisternal injections: mean arterial BP and HR; assay type: in vivo, rats
Method: Intra-cisternal injections. […] Briefly, rats weighing 250–300 g were anaesthetized with pentobarbital sodium (50 mg kg^−1, i.p.) and mounted in a David-Kopf stereotaxic instrument (Yeh J L. et al., Brain. Res. Bull., 30:641–648, 1993). The calvarium was exposed and a 1 mm diameter trephine hole was drilled 1.8 mm lateral to the coronary and 1.5 mm posterior to the sagittal sutures. A cannula (0.7 mm O.D.) connected to a Hamilton syringe (RN-705, 5051) by PE-50 was advanced 4.7 mm into the brain using the electrode carrier.

IL-6 = assay: Plasma cytokine immunoreactivity after LPS: IL-6; assay type: in vivo, Wistar rats; details: 3 hours after LPS 10 mg kg^−1 i.v.; pretreatment 1 mg kg^−1 i.v.
Method: as §4

α1 receptors = assay: Receptor binding, [3H]prazosin, rat cortex; design: species or system Wistar rat
Method: as §1, §2

Blood glucose after LPS = assay type: in vivo, Wistar rats
Method: as §4

[3] = Micro-injection in NTS: BP and HR; assay type: in vivo, rats; details: NTS micro-injection, 0.03, 0.3 μmol, within 30 minutes after injection
Excerpt: Micro-injection in NTS. Rats were anesthetized and placed in a David-Kopf stereotaxic instrument. The cerebellum was exposed after removing the skin and occipital bone. […] At the end of experiments, the animals were sacrificed. The brain was removed and sectioned for histological confirmation of the drug application site.

[4] = i.v., pentobarbital-anesthetized rats

## CC=Cc1ccc(OCC(O)CN2CCN(c3ccccc3Cl)CC2)c(OC)c1 (centres unmarked) [eugenosedin-A]
[1]; 0.1, 0.5, 1.0 mg kg^−1 i.v., pentobarbital-anesthetized Wistar rats
  effect on arterial blood pressure after acute intravenous injection: mild arterial hypotension
[1]; i.v., pentobarbital-anesthetized Wistar rats
  depressor effect compared with trazodone and ketanserin: less than that of trazodone and ketanserin
[1]; [4]
  mean BP and HR after intravenous administration: dose-dependent decrease in mean BP and HR
  phenylephrine- and isoprenaline-induced changes in BP and HR: inhibited phenylephrine- and isoprenaline-induced changes in BP and HR
α2 receptors
  Ki: 1390 nM
  order of α2 receptor binding potency: prazosin >eugenosedin-A >ketanserin >methylsergide >propranolol and 5-HT
α1-adrenoceptors
  cumulative noradrenaline-induced contractile activities: competitively inhibited
β1-adrenoceptor
  cumulative isoprenaline-induced positive inotropic effects: concentration-dependently inhibited
5-HT2A receptor
  Kb: 2.09 nM
5-HT2A receptor; 10^−8, 10^−7, 10^−6 M, isolated rat thoracic aorta
  5-HT-induced contractile activities: concentration-dependently inhibited
IL-1β
  LPS-induced increase in IL-1β: significantly inhibited
[2]; 0.3 μmol
  increase of HR: up to 60 bpm
  pressor response: up to 15 mmHg
[2]; eugenosedin-A and trazodone 0.3, 0.03 μmol, yohimbine 0.03 μmol
  effect on mean arterial BP and HR: increased mean arterial BP and HR
IL-6
  LPS-induced increase in IL-6: significantly inhibited
α1 receptors
  Ki: 142 nM
  order of α1 receptor binding potency: prazosin >ketanserin >eugenosedin-A >methylsergide, propranolol and 5-HT
Blood glucose after LPS; blood glucose at 1 and 3 hours after LPS
  initial hyperglycemic response to LPS: inhibited the initial hyperglycemic response to LPS
Blood glucose after LPS; blood glucose at 5 hours after LPS
  hypoglycemic response to LPS: did not reverse the hypoglycemic response
[3]
  pressor response and HR: mild, but significant, pressor responses and increased the HR

From US7105521B2, “Eugenosedin-A based pharmacoligical agents” (Syn-Tech Chem & Pharm Co., Ltd., priority 2003, dated 2006)
